Structures can show the parent of a compound that is named as a salt.
The compounds below were run against T1, human α7 nAChR (Homo sapiens, UniProt P36544) (assay: cell-based calcium flux assay (FLIPR) for PAM activity, nicotine-evoked response). Conditions: GH4C1 cell line stably transfected with human α7 nAChR; potentiation of nicotine calcium flux.
T1 construct: expressed in transfected cells; host or cells: GH4C1 (rat pituitary) cell line, stably transfected
Description: The PAM activity of the compounds of the invention at the α7 nAChR may be determined using the following cell-based calcium flux assay which uses a Fluorimetric Image Plate Reader (FLIPR) (see Schroeder et al.; J. Biomolecular Screening, 1(2), p 75-80, 1996). GH4C1 cell line stably transfected with human α7 nAChR was suspended in a 384 well plate and incubated at 30° C. for 48 h in a 5% carbon dioxide atmosphere. The growth media was removed and the cells washed three times with a solution of Hanks' balanced salt solution (HBSS), 20 mM HEPES and 2.5 mM probenecid leaving 20 μl washing solution in each well. A loading solution (20 μl) containing HBSS, probenecid, 1-4 μM Fluo4 AM (a calcium indicator dye) and pluronic acid was added and the plate incubated for 45 min at 37° C. under an atmosphere free from carbon dioxide. The cells were washed three times leaving 30 μl in each well. The plate containing the cells and calcium indicator dye were then transferred to the FLIPR. The assay was initiated by collecting baseline datapoints at 10 second intervals followed by addition of the test compound in buffer solution (0.33% DMSO) and diluted to a final concentration of 10 μM and serial dilution of the wells, 1:2 or 1:3, gave a low concentration of <1 nM. Following a further 5-10 mins 10 μl of 50 μM nicotine was added and data collected for 2-3 mins. Nicotine produced a rapid, transient and reproducible calcium flux which could be potentiated with the positive allosteric modulator test compounds.

T1 sequence (P36544 23-502): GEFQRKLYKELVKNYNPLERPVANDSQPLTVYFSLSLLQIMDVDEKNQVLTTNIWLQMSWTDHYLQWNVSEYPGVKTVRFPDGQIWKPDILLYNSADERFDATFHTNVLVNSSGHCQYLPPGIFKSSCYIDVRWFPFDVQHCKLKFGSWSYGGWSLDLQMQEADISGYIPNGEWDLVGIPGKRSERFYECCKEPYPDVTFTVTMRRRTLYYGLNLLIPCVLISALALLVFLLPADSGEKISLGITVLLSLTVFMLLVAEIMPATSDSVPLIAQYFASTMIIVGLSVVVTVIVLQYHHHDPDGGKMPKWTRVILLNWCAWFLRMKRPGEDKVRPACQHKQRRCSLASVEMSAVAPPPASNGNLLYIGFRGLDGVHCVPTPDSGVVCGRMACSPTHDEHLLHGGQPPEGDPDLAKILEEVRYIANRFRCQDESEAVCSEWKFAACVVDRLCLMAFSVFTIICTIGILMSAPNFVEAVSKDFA

Row | pEC50 | pEC50 Mean | Compound
1 | 6 | *** (pEC50 mean of at least 6.0) | CC(F)(F)c1cc(NCc2cnc3[nH]c(C(F)(F)F)cc3c2)ncn1.Cl [8 HCl, 6-(1,1-Difluoroethyl)-N-{[2-(trifluoromethyl)-1H-pyrrolo[2,3-b]pyridin-5-yl]methyl}-4-pyrimidinamine hydrochloride]
2 | – | * (pEC50 mean of at least 5.0) | Cl.FC(F)(F)c1cc2cc(CNc3cc(C4CC4)ncn3)cnc2[nH]1 [14 HCl]
3 | – | * (pEC50 mean of at least 5.0) | CCc1cc(NCc2cnc3[nH]c(C(F)(F)F)cc3c2)ncn1.Cl [5 HCl, 6-Ethyl-N-{[2-(trifluoromethyl)-1H-pyrrolo[2,3-b]pyridin-5-yl]methyl}-4-pyrimidinamine HCl]
4 | – | ** (pEC50 mean of at least 5.5) | Cl.FC(F)c1cc(NCc2cnc3[nH]c(C(F)(F)F)cc3c2)ncn1 [10 HCl, 6-(Difluoromethyl)-N-{[2-(trifluoromethyl)-1H-pyrrolo[2,3-b]pyridin-5-yl]methyl}-4-pyrimidinamine hydrochloride]

Same assay, conditions: GH4C1 cell line stably transfected with human α7 nAChR; potentiation of nicotine calcium flux; read-out: pEC50 (converted)

Row | EC50 [µM] | Compound
5 | 1 | CC(F)(F)c1cc(NCc2cnc3[nH]c(C(F)(F)F)cc3c2)ncn1 [Example 8, 6-(1,1-Difluoroethyl)-N-{[2-(trifluoromethyl)-1H-pyrrolo[2,3-b]pyridin-5-yl]methyl}-4-pyrimidinamine]
6 | 0.398 | CC(C)(F)c1cc(NCc2cnc3[nH]c(C(F)(F)F)cc3c2)ncn1 [Example 15, 6-(1-Fluoro-1-methylethyl)-N-{[2-(trifluoromethyl)-1H-pyrrolo[2,3-b]pyridin-5-yl]methyl}-4-pyrimidinamine]
7 | 0.631 | [2H]C([2H])(Nc1cc(C(C)(C)F)ncn1)c1cnc2[nH]c(C(F)(F)F)cc2c1 [Example 15-d, 6-(1-Fluoro-1-methylethyl)-N-{[2-(trifluoromethyl)-1H-pyrrolo[2,3-b]pyridin-5-yl]methyl}-4-pyrimidinamine-d2]
8 | 1.26 | [2H]C([2H])(Nc1cc(C(C)(F)F)ncn1)c1cnc2[nH]c(C(F)(F)F)cc2c1 [Example 8-d]

Same assay, conditions: GH4C1 cell line stably transfected with human α7 nAChR; potentiation of nicotine calcium flux; read-out: pEC50 Mean (converted)

Row | Compound | EC50 [µM]
9 | CC(C)c1cc(NCc2cnc3[nH]c(C(F)(F)F)cc3c2)ncn1 [Example 2, 6-(1-Methylethyl)-N-{[2-(trifluoromethyl)-1H-pyrrolo[2,3-b]pyridin-5-yl]methyl}-4-pyrimidinamine] | ≤ 10
10 | N#Cc1cc(NCc2cnc3[nH]c(C(F)(F)F)cc3c2)ncn1 [Example 3, 6-({[2-(Trifluoromethyl)-1H-pyrrolo[2,3-b]pyridin-5-yl]methyl}amino)-4-pyrimidinecarbonitrile] | ≤ 3.16
11 | Cc1c(NCc2cnc3[nH]c(C(F)(F)F)cc3c2)ncnc1C(C)F (stereo not drawn) [20 HCl] | ≤ 1
12 | Cc1c(NCc2cnc3[nH]c(C(F)(F)F)cc3c2)ncnc1C1CC1 [25 HCl, 6-Cyclopropyl-5-methyl-N-{[2-(trifluoromethyl)-1H-pyrrolo[2,3-b)pyridin-5-yl]methyl}-4-pyrimidinamine hydrochloride] | ≤ 3.16
13 | CC(F)c1cc(NCc2cnc3[nH]c(C(F)(F)F)cc3c2)ncn1 (stereo not drawn) [9 HCl] | ≤ 3.16
14 | Cc1c(NCc2cnc3[nH]c(C(F)(F)F)cc3c2)ncnc1C(F)(F)F [22 HCl, 5-Methyl-6-(trifluoromethyl)-N-{[2-(trifluoromethyl)-1H-pyrrolo[2,3-b]pyridin-5-yl]methyl}-4-pyrimidinamine hydrochloride] | ≤ 1
15 | Cl.[2H]C([2H])(Nc1cc(C2CC2)ncn1)c1cnc2[nH]c(C(F)(F)F)cc2c1 [14-d HCl] | ≤ 3.16
16 | Cc1c(NCc2cnc3[nH]c(C(F)(F)F)cc3c2)ncnc1C(C)(F)F [21 HCl] | ≤ 1
17 | FCc1cc(NCc2cnc3[nH]c(C(F)(F)F)cc3c2)ncn1 [11 HCl, 6-(Fluoromethyl)-N-{[2-(trifluoromethyl)-1H-pyrrolo[2,3-b]pyridin-5-yl]methyl}-4-pyrimidinamine hydrochloride] | ≤ 10
18 | CCc1ncnc(NCc2cnc3[nH]c(C(F)(F)F)cc3c2)c1F [16 HCl, 6-Ethyl-5-fluoro-N-{[2-(trifluoromethyl}-1H-pyrrolo[2,3-b]pyridin-5-yl]methyl}-4-pyrimidinamine hydrochloride] | ≤ 1
19 | Cc1c(CF)ncnc1NCc1cnc2[nH]c(C(F)(F)F)cc2c1 [24 HCl] | ≤ 10
20 | FC(F)(F)c1cc(NCc2cnc3[nH]c(C(F)(F)F)cc3c2)ncn1 [Example 1, 6-(Trifluoromethyl)-N-{[2-(trifluoromethyl)-1H-pyrrolo[2,3-b]pyridin-5-yl]methyl}-4-pyrimidinamine] | ≤ 1

More lines, now with the values ahead:

Row | EC50 [µM] | Compound
21 | ≤ 3.16 | FC(F)c1cc(NCc2cnc3[nH]c(C(F)(F)F)cc3c2)ncn1 [Example 10, 6-(Difluoromethyl)-N-{[2-(trifluoromethyl)-1H-pyrrolo[2,3-b]pyridin-5-yl]methyl}-4-pyrimidinamine]
22 | ≤ 3.16 | CC(C)(C)c1cc(NCc2cnc3[nH]c(C(F)(F)F)cc3c2)ncn1 [Example 4, 6-(1,1-Dimethylethyl)-N-{[2-(trifluoromethyl)-1H-pyrrolo[2,3-b]pyridin-5-yl]methyl}-4-pyrimidinamine]
23 | ≤ 10 | FC(F)(F)c1cc2cc(CNc3cc(C4CC4)ncn3)cnc2[nH]1 [Example 14, 6-Cyclopropyl-N-{[2-(trifluoromethyl)-1H-pyrrolo[2,3-b]pyridin-5-yl]methyl}-4-pyrimidinamine]
24 | ≤ 3.16 | FCc1cc(NCc2cnc3[nH]c(C(F)(F)F)cc3c2)ncn1 [Example 11, 6-(Fluoromethyl)-N-{[2-(trifluoromethyl)-1H-pyrrolo[2,3-b]pyridin-5-yl]methyl}-4-pyrimidinamine]
25 | ≤ 3.16 | FC(F)(F)c1cc(NCc2ccc3[nH]c(C(F)(F)F)cc3c2)ncn1 [Example 12, 6-(Trifluoromethyl)-N-{[2-(trifluoromethyl)-1H-indol-5-yl]methyl}-4-pyrimidinamine]
26 | ≤ 3.16 | Cc1c(NCc2cnc3[nH]c(C(F)(F)F)cc3c2)ncnc1C(F)F [Example 23, 6-(difluoromethyl)-5-methyl-N-{[2-(trifluoromethyl)-1H-pyrrolo[2,3-b]pyridin-5-yl]methyl}-4-pyrimidinamine]
27 | ≤ 10 | CCc1cc(NCc2ccc3[nH]c(C(F)(F)F)cc3c2)ncn1 [Example 18, 6-Ethyl-N-{[2-(trifluoromethyl)-1H-indol-5-yl]methyl}-4-pyrimidinamine]
28 | ≤ 1 | CC(F)(F)c1cc(NCc2cnc3[nH]c(C(F)(F)F)cc3c2)ncn1 [Example 8, 6-(1,1-Difluoroethyl)-N-{[2-(trifluoromethyl)-1H-pyrrolo[2,3-b]pyridin-5-yl]methyl}-4-pyrimidinamine]
29 | ≤ 1 | CC(C)(F)c1cc(NCc2cnc3[nH]c(C(F)(F)F)cc3c2)ncn1 [Example 15, 6-(1-Fluoro-1-methylethyl)-N-{[2-(trifluoromethyl)-1H-pyrrolo[2,3-b]pyridin-5-yl]methyl}-4-pyrimidinamine]
30 | ≤ 10 | CC(=O)c1cc(NCc2cnc3[nH]c(C(F)(F)F)cc3c2)ncn1 [Example 7, 1-[6-({[2-(Trifluoromethyl)-1H-pyrrolo[2,3-b]pyridin-5-yl]methyl}amino)-4-pyrimidinyl]ethanone]
31 | ≤ 1 | [2H]C([2H])(Nc1cc(C(C)(C)F)ncn1)c1cnc2[nH]c(C(F)(F)F)cc2c1 [Example 15-d, 6-(1-Fluoro-1-methylethyl)-N-{[2-(trifluoromethyl)-1H-pyrrolo[2,3-b]pyridin-5-yl]methyl}-4-pyrimidinamine-d2]
32 | ≤ 10 | CCc1ncnc(NCc2cnc3[nH]c(C(F)(F)F)cc3c2)c1C [Example 19, 6-Ethyl-5-methyl-N-{[2-(trifluoromethyl)-1H-pyrrolo[2,3-b]pyridin-5-yl]methyl}-4-pyrimidinamine]
33 | ≤ 10 | FC(F)(F)c1cc2cc(CNc3cc(Cl)ncn3)ccc2[nH]1 [Example 13, 6-Chloro-N-{[2-(trifluoromethyl)-1H-indol-5-yl]methyl}-4-pyrimidinamine]
34 | ≤ 10 | N#CCc1cc(NCc2cnc3[nH]c(C(F)(F)F)cc3c2)ncn1 [Example 6, [6-({[2-(Trifluoromethyl)-1H-pyrrolo[2,3-b]pyridin-5-yl]methyl}amino)-4-pyrimidinyl]acetonitrile]
35 | ≤ 10 | CCc1cc(NCc2cnc3[nH]c(C(F)(F)F)cc3c2)ncn1 [Example 5, 6-Ethyl-N-{[2-(trifluoromethyl)-1H-pyrrolo[2,3-b]pyridin-5-yl]methyl}-4-pyrimidinamine]
36 | ≤ 3.16 | [2H]C([2H])(Nc1cc(C(C)(F)F)ncn1)c1cnc2[nH]c(C(F)(F)F)cc2c1 [Example 8-d]
37 | ≤ 10 | CC(F)c1cc(NCc2cnc3[nH]c(C(F)(F)F)cc3c2)ncn1 (stereo not drawn) [Example 9, 6-(1-Fluoroethyl)-N-{[2-(trifluoromethyl)-1H-pyrrolo[2,3-b]pyridin-5-yl]methyl}-4-pyrimidinamine]
38 | ≤ 3.16 | FC(F)(F)c1cc2cc(CNc3cc(Cl)ncn3)cnc2[nH]1 [Example 17, 6-Chloro-N-{[2-(trifluoromethyl)-1H-pyrrolo[2,3-b]pyridin-5-yl]methyl}-4-pyrimidinamine]
